Patent US20240247031A1, “COMPOSITION FOR TREATING CANCER CONTAINING TELOMERASE-TARGETING GNRH ANTAGONIST-DERIVED PEPTIDE HS1002” (Research & Business Foundation Sungkyunkwan University, priority 2023, published 2024)

How the values were obtained:
HEK293-Vector cells = experiment: Intracellular calcium flux assay, mock-transfected cells; type: cell-based, human; conditions: 1 and 10 nM
Description: (§1) Human embryonic kidney cell line (HEK293), and mouse cancer cell lines (MC38, 4T1) were purchased from the American Type Culture Collection (Manassas, VA, USA). All cell lines were grown in Dulbecco's Modified Essential Medium (DMEM) or Roswell Park Memorial Institute (RPMI) 1640 supplemented with 10% FBS, 100 U/mL penicillin, and 100 μg/mL streptomycin (WelGENE, Daegu, South Korea) in a humidified atmosphere of 5% CO2 at 37° C. To obtain GnRHR-overexpressing HEK293 (HEK293-GnRHR) cells, transfection of the pCMV-AC-GFP-GnRHR vector (HEK293-GnRHR) was performed using Lipofectamine™ 3000 according to the manufacturer's instructions (Cat. 100022052, Thermo Fisher Scientific, Waltham, MA, USA). Colonies of geneticin-resistant cells were selected by adding G418 (800 μg/mL, Sigma) to the culture medium. The HEK293-pCMV-AC-GFP vector (HEK293-Vector) cells were used as a mock-transfection group.
(§2) Intracellular calcium mobilization was measured using the Calcium Flux Assay Kit (Cat. ab233472, abcam) in response to different concentrations of each peptide. The percentage increase was calculated relative to basal fluorescence intensity. The experiment was performed in triplicate.

MC38 tumor = experiment: MC38 syngeneic mouse tumor model (FIG. 19); type: in vivo; conditions: 1 mg/kg s.c. every day
Description: (§3) All mice were purchased from Central Lab Animal Inc. ([…]). They were raised in a 12 h environmental light/dark cycle with controlled temperature (22±2° C.) conditions. The experimental protocol was approved by the Sungkyunkwan University Institutional Animal Care and Use Committee (SKKUIACUC2021-06-27-1, SKKUIACUC2023-01-07-1). For the establishment of tumors, LNCaP (1×10^7), MC38 (2×10^5), and 4T1 (1×10^6) suspended in serum-free media containing 50% Matrigel was subcutaneously administered in the right flank of mice, respectively. The tumor volumes (V) were calculated using a caliper and the standard equation: V (mm^3)=0.52 (ab^2) (a=length, b=width). Once the tumor reached 100-200 mm^3, the mice were randomly divided into different groups and subcutaneously injected with a vehicle or each peptide every day.
The sequences of the TERT peptide are highly conserved in human and mouse, indicating its potential translatability to mouse cancer. […] Hot tumors are generally more responsive to immunotherapy. In contrast, ‘Cold’ tumors such as the 4T1 tumor model lack infiltrating T cells and often have a low tumor mutational burden. Without a pre-existing adaptive immune response, cold tumors are insensitive to immunotherapy. […]

[1] = system: prostate cancer cell line (LNCaP); experiment: MTT cytotoxicity comparison of peptides at the same concentration (FIG. 6); type: cell-based, human; conditions: 300 μM, 48 h, 1% FBS, among GV1001, GnRH, HS1001, HS1002
Description: The prostate cancer cell line (LNCaP), in which the reactivity of HS1002 to hTERT had been best, were used to investigate the cytotoxic effects of GV1001, GnRH, HS1001, and HS1002 under conditions of 1,500 cells/well, 1% FBS, and 48-hour treatment. The prostate cancer cells were seeded at 1.5×10^3 cells per well in a 96-well plate, and then incubated in an incubator for one day. Thereafter, the cells were treated with HS1001, HS1002, GV1001, and GnRH diluted to (300, 200, 100, and 50 μM) in fresh media. After 48-h incubation, an MTT reagent (3-(4,5-dimethylthiazol-2-yl)-2,5-diphenyltetrazolium bromide, Sigma-Aldrich, M6494) was added, and subsequently the plate was shielded from light and kept in an incubator for 3 h. Thereafter, the MTT solution was discarded, and 100 μL of dimethyl sulfoxide (DMSO, 99.9%, HPLC grade, DAEJUNG CHEMICALS & METALS, 3047-2304) was added to each well, and subsequently the plate was shielded from light and then left at room temperature for 20 min. After that, the absorbance was measured at 540 nm using a microplate reader.

LNCaP tumors = experiment: LNCaP xenograft model, tumor volume, tumor weight and body weight (FIG. 17); type: in vivo; conditions: LNCaP xenograft BALB/c nude mice, 1 mg/kg/day s.c., 13 days
Description: as §3
To investigate the anticancer effect of HS1002, the present inventors observed the volume of cancer cells after transplanting the cancer cells into experimental animals. Specifically, mice (4-week-old male BALB/c nude mice; Central Lab. Animal Inc., Seoul, Korea) were prepared, and tumor cells (1×10^7 LNCaP cells) suspended in 1 mL of a serum-free medium containing 50% Matrigel were percutaneously injected into the upper flank of each nude mouse. When the tumor cell volume reached about 200 mm^3, the mice were randomly assigned to a vehicle control group, a leuprolide acetate-treated group, and test groups (GV1001-treated group and HS1002-treated group), respectively. Leuprolide acetate (0.1 mg/kg/day) and GV1001 and HS1002 (1 mg/kg/day) were injected subcutaneously for 13 days.

HEK293-GnRHR cells [2] = biological target: T1, HEK293-GnRHR cells (Homo sapiens, UniProt P30968); experiment: Intracellular calcium flux assay; type: cell-based
T1 construct: GFP; expressed in transfected cells
T1 sequence (P30968 1-328): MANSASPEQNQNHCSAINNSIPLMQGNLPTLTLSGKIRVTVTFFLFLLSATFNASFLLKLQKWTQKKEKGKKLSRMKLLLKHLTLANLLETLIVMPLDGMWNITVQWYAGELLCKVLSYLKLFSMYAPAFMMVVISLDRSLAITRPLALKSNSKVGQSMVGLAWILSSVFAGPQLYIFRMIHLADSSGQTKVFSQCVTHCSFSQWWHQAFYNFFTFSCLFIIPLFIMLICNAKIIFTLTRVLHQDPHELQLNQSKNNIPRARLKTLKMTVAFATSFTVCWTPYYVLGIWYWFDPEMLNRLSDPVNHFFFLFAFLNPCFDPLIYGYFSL
Description: as §1, §2

HEK293-GnRHR cells [3] = biological target: T1, HEK293-GnRHR cells; experiment: CRE-luciferase reporter assay; type: cell-based
Description: as §1
The HEK293-pCMV6-AC-GFP and HEK293-GnRHR cells (4×10^4 cells/well) were grown in 96-well plates and co-transfected with a luciferase reporter plasmid containing a cAMP response element (CRE) using Lipofectamine 3000 (Life Technologies). The transfected cells were exposed to different concentrations of peptide for 24 h, and the promoter activity was measured by a dual-luciferase reporter assay system (BPS Bioscience). The firefly and Renilla luciferase activities were measured using a microplate luminometer (Thermo, Varioskan LUX Multimode Microplate Reader). The calculation of relative luciferase activities involved the normalization of the firefly luciferase activity […].

SMILES: CCNC(=O)[C@@H]1CCCN1C(=O)[C@@H](NC(=O)[C@H](Cc1ccccc1)NC(=O)[C@H](CCCNC(=N)N)NC(=O)[C@H](CC(C)C)NC(=O)[C@H](CCCNC(=N)N)NC(=O)[C@H](Cc1ccc(O)cc1)NC(=O)[C@H](CO)NC(=O)[C@H](Cc1c[nH]c2ccccc12)NC(=O)[C@H](Cc1c[nH]cn1)NC(=O)[C@@H]1CCC(=O)N1)[C@@H](C)CC [HS1002]
- calcium flux (HEK293-Vector cells): increased calcium flux
- tumor volume (MC38 tumor): diminished
- tumor weight (MC38 tumor): diminished
- cytotoxicity to prostate cancer cells [1]: cytotoxicity to prostate cancer cells was highest
- other toxicity (LNCaP tumors): no other toxicity
- reduction of tumor volume (LNCaP tumors): about 50%
- reduction of tumor weight (LNCaP tumors): about 50%
- calcium flux (HEK293-GnRHR cells [2]; 100 nM): increased calcium flux in HEK293-GnRHR cells
- calcium flux (HEK293-GnRHR cells [2]; 1 and 10 nM): increased calcium flux
- CRE-luciferase activity compared to the control (HEK293-GnRHR cells [3]; 10 μM): 2 fold
- cAMP-mediated promoter binding activity (CRE-luciferase), concentration dependence (HEK293-GnRHR cells [3]; 24 h): concentration-dependently enhanced
